Legend:
Test in all cases: R-SAT broad profiling
Format in all cases: cell-based
[1] = biological target: T1, m5 (Homo sapiens, UniProt P08912); settings: agonist; read-out: pEC50 or pIC50 (converted)
T1 construct: expressed in transfected cells; host or cells: NIH3T3
T1 sequence (P08912 1-532): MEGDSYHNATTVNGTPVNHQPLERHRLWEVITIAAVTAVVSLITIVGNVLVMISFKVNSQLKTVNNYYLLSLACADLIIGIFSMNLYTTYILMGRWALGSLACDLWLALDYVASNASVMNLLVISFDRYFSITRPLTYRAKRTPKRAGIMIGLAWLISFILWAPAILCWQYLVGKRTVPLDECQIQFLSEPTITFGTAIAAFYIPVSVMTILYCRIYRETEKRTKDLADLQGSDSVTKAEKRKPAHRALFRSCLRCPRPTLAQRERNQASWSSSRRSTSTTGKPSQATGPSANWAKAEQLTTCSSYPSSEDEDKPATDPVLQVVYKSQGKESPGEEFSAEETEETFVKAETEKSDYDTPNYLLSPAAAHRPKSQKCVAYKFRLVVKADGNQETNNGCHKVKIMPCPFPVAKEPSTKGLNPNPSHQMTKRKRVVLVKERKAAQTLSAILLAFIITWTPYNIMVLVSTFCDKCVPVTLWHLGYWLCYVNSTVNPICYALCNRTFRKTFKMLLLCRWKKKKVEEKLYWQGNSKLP
Description: (§1) The functional receptor assay, Receptor Selection and Amplification Technology (R-SAT), was used (with minor modifications from that previously described U.S. Pat. No. 5,707,798) to screen compounds for efficacy at the 5-HT2A receptor. Briefly, NIH3T3 cells were grown in 96 well tissue culture plates to 70-80% confluence. Cells were transfected for 12-16 hours with plasmid DNAs using superfect (Qiagen Inc.) as per manufacture's protocols. R-SAT's were generally performed with 50 ng/well of receptor and 20 ng/well of Beta-galactosidase plasmid DNA. All receptor and G-protein constructs used were in the pSI mammalian expression vector (Promega Inc) as described in U.S. Pat. No. 5,707,798. The 5HT2A receptor gene was amplified by nested PCR from brain cDNA using the oligodeoxynucleotides based on the published sequence (see Saltzman et. al. Biochem. Biophys. Res. Comm. 181:1469-78 (1991)). Large-scale transfections, cells were transfected for 12-16 hours, then trypsinized and frozen in DMSO. Frozen cells were later thawed, plated at 10,000-40,000 cells per well of a 96 well plate that contained drug. With both methods, cells were then grown in a humidified atmosphere with 5% ambient CO2 for five days. Media was then removed from the plates and marker gene activity was measured by the addition of the beta-galactosidase substrate ONPG (in PBS with 5% NP-40). The resulting colorimetric reaction was measured in a spectrophotometric plate reader (Titertek Inc.)at […]. All data were analyzed using the computer program XLFit (IDBSm). Efficacy is the percent maximal repression compared to repression by a control compound (ritanserin in the case of 5HT2A). pIC50 is the negative of the log(IC50), where IC50 is the calculated concentration in Molar that produces 50% maximal repression.
(§2) The R-SAT assay (described above in example 289) was used to investigate the selectivity of 4-(4-Fluoro-benzyl)-3-(4-isobutoxy-benzyl)-8-methyl-1-oxa-3,8-diaza-spiro[4.5]decan-2-one.

[2] = biological target: T2, m1 (Homo sapiens, UniProt P11229); settings: agonist; read-out: pEC50 or pIC50 (converted)
T2 construct: expressed in transfected cells; host or cells: NIH3T3
T2 sequence (P11229 1-460): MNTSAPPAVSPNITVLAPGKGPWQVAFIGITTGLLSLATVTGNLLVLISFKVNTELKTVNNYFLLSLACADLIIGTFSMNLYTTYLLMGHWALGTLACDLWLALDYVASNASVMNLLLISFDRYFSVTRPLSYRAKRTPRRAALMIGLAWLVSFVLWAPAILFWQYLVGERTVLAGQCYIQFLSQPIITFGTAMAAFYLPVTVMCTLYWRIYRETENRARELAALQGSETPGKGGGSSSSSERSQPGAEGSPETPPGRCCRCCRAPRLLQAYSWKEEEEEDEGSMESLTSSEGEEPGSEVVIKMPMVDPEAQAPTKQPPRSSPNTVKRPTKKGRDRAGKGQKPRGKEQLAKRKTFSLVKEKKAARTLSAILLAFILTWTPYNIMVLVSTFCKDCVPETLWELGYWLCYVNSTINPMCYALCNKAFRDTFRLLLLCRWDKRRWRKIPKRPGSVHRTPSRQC
Description: as §1, §2

[3] = biological target: T3, alpha 2C (Homo sapiens, UniProt P18825); settings: read-out: pEC50 or pIC50 (converted)
T3 construct: expressed in transfected cells; host or cells: NIH3T3
T3 sequence (P18825 1-462): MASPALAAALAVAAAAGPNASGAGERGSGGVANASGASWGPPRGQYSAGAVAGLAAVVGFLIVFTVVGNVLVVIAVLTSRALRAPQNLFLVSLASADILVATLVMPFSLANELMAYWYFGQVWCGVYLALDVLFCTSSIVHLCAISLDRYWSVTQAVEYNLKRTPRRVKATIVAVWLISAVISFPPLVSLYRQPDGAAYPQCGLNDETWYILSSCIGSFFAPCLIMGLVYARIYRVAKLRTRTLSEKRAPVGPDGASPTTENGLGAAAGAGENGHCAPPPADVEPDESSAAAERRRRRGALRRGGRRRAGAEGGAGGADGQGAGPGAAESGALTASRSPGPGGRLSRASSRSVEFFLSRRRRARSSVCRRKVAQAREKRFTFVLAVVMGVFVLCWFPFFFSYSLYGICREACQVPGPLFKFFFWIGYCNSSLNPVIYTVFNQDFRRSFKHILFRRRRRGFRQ
Description: as §1, §2

[4] = biological target: T4, 5HT6A (Homo sapiens, UniProt P50406); settings: inverse; read-out: pEC50 or pIC50 (converted)
T4 construct: expressed in transfected cells; host or cells: NIH3T3
Description: as §1, §2

[5] = biological target: T5, m3 (Homo sapiens, UniProt P20309); settings: read-out: pEC50 or pIC50 (converted)
T5 construct: expressed in transfected cells; host or cells: NIH3T3
Description: as §1, §2

T5 sequence (P20309 whole entry): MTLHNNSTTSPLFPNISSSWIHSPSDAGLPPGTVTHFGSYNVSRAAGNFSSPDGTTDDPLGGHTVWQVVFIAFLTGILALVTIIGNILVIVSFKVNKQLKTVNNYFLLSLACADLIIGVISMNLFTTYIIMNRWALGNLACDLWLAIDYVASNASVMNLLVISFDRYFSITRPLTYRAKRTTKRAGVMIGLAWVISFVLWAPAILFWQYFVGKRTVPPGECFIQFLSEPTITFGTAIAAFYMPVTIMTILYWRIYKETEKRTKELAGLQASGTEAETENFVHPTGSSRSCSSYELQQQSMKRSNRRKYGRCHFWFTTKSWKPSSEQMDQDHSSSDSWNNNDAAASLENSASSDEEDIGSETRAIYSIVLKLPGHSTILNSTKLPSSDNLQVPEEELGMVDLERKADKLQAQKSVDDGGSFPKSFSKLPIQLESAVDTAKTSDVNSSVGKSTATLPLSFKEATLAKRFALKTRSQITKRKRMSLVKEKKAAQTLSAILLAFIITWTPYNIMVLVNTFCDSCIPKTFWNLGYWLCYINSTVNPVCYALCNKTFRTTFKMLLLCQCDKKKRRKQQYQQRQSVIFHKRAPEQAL
T4 sequence (P50406 whole entry): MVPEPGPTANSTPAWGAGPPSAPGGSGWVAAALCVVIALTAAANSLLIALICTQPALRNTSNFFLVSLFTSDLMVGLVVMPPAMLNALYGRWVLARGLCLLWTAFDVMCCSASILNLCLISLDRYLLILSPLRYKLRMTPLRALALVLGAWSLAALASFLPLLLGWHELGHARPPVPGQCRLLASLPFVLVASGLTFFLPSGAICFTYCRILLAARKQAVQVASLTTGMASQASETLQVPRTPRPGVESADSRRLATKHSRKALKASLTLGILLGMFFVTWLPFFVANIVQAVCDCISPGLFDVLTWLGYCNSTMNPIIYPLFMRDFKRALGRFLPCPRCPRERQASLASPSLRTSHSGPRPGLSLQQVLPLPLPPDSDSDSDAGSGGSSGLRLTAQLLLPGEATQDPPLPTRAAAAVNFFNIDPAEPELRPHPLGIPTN

CC(C)COc1ccc(CN2C(=O)OC3(CCN(C)CC3)C2Cc2ccc(F)cc2)cc1.Cl (racemic) [Example 69NLS75, 4-(4-Fluorobenzyl)-3-(4-isobutoxybenzyl)-8-methyl-1-oxa-3,8-diazaspiro[4.5]decan-2-one, hydrochloride]
> 3.16 µM: EC50 [1] | EC50 [2] | EC50 ([3]; agonist) | IC50 ([3]; antagonist) | IC50 [4] | EC50 ([5]; agonist) | IC50 ([5]; inverse)

Reference: US20080051429A1, “USE OF 4-AMINO-PIPERIDINES FOR TREATING SLEEP DISORDERS” (priority 2006, published 2008)
